In paper PMC8587714, “Preliminary Assessment of the Anti-inflammatory Activity of New Structural Honokiol Analogs with a 4′-O-(2-Fluoroethyl) Moiety and the Potential of Their ^18F-Labeled Derivatives for Neuroinflammation Imaging” (Molecules, 2021):
Where two headings read alike, the source gives them in different places.

What was measured:
IL-6 and TNF-α = assay: Cytokine assay (ELISA) in LPS-induced neuroinflammation in mice; type: in vivo, C57BL/6 mice; settings: 10 mg/kg for 3 days, 72 h after LPS
[1] = tested on: lipid peroxidation products (TBARS); assay: TBARS assay in brain of LPS-injected mice; type: in vivo, C57BL/6 mice; settings: 10 mg/kg for 3 days, 72 h after LPS
Text: All experiments adhered to regulations of DIRECTIVE 2010/63/EU on the protection of laboratory animals. The procedures with animals were reviewed and approved by the Ethics Committee of Smorodintsev Research Institute of Influenza. […]. The animals were housed in a climate-controlled room with a 12/12-h light cycle. The subjects had ad libitum access to food and water during housing. Neuroinflammation was modeled in animals by intraperitoneal (i.p.) single injection of LPS from Escherichia coli saline O111:B4 (Sigma-Aldrich) at a dose of 2 mg/kg.
In total, 7 groups of 5 individuals in each were studied, including a group of intact animals. […]. The blood collected after decapitation was left in tubes with a serum separator for 30 min, then centrifuged at 611 g (3000 rpm) and 4 °C for 10 min. Blood and brain samples were frozen and stored at −20 °C.
The brain was weighed and 2 mL of ice-cold endotoxin-free PBS containing 0.1% non-ionic detergent Triton X-100 was added to the tissue samples left under ice for 10 min until homogenized with a tissue disruptor. […]
The supernatant diluted with buffer 1:10 was used for analysis. […] Each sample (150 μL) was loaded in duplicate into a 96-well plate, and the absorbance was measured at 535 nm on an EPOCH2TC.

human recombinant COX-1 [2] = biological target: T1, human recombinant COX-1 (Homo sapiens, UniProt P23219); assay: COX (human) Inhibitor Screening Assay kit (EIA), COX-1
human recombinant COX-2 [3] = biological target: T2, human recombinant COX-2 (Homo sapiens, UniProt P35354); assay: COX (human) Inhibitor Screening Assay kit (EIA), COX-2
T2 sequence (P35354 18-604): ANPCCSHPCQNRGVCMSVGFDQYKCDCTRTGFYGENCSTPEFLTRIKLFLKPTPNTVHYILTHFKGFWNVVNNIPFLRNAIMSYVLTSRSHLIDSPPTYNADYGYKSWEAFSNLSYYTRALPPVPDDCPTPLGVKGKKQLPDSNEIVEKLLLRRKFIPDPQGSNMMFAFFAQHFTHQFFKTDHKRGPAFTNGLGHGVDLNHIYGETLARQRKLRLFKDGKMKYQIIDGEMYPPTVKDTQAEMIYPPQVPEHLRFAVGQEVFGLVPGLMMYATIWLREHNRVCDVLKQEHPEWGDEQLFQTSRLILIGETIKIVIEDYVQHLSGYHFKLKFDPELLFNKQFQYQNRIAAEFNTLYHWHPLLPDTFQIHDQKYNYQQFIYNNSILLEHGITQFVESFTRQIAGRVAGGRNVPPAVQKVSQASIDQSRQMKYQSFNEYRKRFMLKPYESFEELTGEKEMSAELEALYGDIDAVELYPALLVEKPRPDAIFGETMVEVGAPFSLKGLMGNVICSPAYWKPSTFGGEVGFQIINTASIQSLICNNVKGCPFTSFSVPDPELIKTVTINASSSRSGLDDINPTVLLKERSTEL

ovine COX-1 = tested on: ovine COX-1; parameters: method as in PMID 25074039; settings: ovine COX-1/COX-2 assay kit; cited from earlier work
ovine COX-2 = tested on: ovine COX-2; parameters: method as in PMID 25074039; settings: ovine COX-1/COX-2 assay kit; cited from earlier work
human recombinant COX-1 [4] = biological target: T1, human recombinant COX-1; parameters: purchased Cayman Chemical Company 701230; settings: human COX-1/COX-2 assay kit; cited from earlier work
human recombinant COX-2 [5] = biological target: T2, human recombinant COX-2; parameters: purchased Cayman Chemical Company 701230; settings: cited from earlier work
[6] = Plasma protein binding by ultrafiltration, rat plasma; type: in vitro ADME
Protocol: (§1) The ultrafiltration method was used to estimate the protein-free fraction of [^18F]F-IV and [^11C]MPbP in human and rat plasma. Equal volumes (500 μL) of plasma or PBS (control) were mixed with the formulated solution of radioligand (5 MBq,50μL) and incubated at 37 °C for 15 min. After incubation, aliquots of mixture (200 µL) were transferred to the tubes for ultrafiltration (Amicon 3K; Merck) and centrifuged at 7000 g for 15 min. Equal aliquots (20 μL) of ultrafiltrate (Cfree) and plasma (Ctotal) were measured with γ-counter. The obtained data were corrected for the radioligand binding to the filter membrane. Filtrations were performed in duplicate. The unbound (free) fraction of the radioligand was calculated as fu(%) = Cfree/Ctotal × 100%.

[7] = Plasma protein binding by ultrafiltration, human plasma; type: in vitro ADME
Protocol: as §1

[8] = parameters: method as in doi:10.1002/slct.201904788; settings: all examined organs and brain regions; cited from earlier work
[9] = Plasma-stability study (radio-HPLC); type: in vitro ADME; settings: 37 °C, up to 60 min
Protocol: The stability of [^18F]F-IV was investigated in human plasma at 37 °C in the range from 0 to 60 min according to a modified protocol. Phosphate-buffered saline (PBS, 0.15 M, pH 7.4) was used as a control. [^18F]F-IV formulated solution (10 µL, ~1 MBq) was added to tubes with PBS (300 µL) and human plasma (300 µL). The mixture was vortexed and incubated at 37 °C. An aliquot of 100 µL from the sample was taken at different time points (0, 10, 20, 40, and 60 min) and mixed with 100 µL ice-cooled acetonitrile and centrifuged (3 min, 4500× g). The supernatants were analyzed by radio-HPLC using XBridge C18 analytical column.

[10] = logD7.4 determination, shake-flask method; type: physicochemical; settings: 1-octanol/phosphate buffer pH 7.4, n = 6; read-out: lipophilicity (logD7.4)
Protocol: The partition coefficient of [^18F]F-IV (log D7.4) was determined by the shake-flask method for measuring the distribution of radioactivity between 1-octanol and phosphate buffer pH 7.4. Into a tube containing 10 µL of [^18F]F-IV (~1 MBq), 1.5 mL of pre-saturated 1-octanol and 1.5 mL of phosphate buffer were added and vortexed for 15 min. Then, the tube was centrifuged at 3000 g for 5 min to ensure complete separation of the phases. Then, aliquots of 500 μL were taken from each phase into separate tubes and the radioactivity was measured in a γ-counter. The measurements were performed in triplicate. The log D7.4 value was calculated as follows: log (counts per min in 1-octanol/ counts per min in PBS) for five independent experiments.

[11] = Ex vivo biodistribution in intact, LPS-treated and celecoxib-blocked rats; parameters: species or system Wistar rats
Protocol: Ex vivo biodistribution was intended as a preliminary assessment of the BBB permeability and overall distribution of [^18F]F-IV in LPS-treated and intact Wistar rats. [^18F]F-IV uptake by tissue was expressed as %ID/g (dose administered per gram of tissue). […] The radioligand seems to readily penetrate the BBB, as evidenced by the high initial rate of brain uptake with a peak value of 2.21 ± 0.64 and 2.09 ± 0.65 (%ID/g) in the pons and medulla, respectively, at 10 min post-injection, (Figure 6A). […] The excretion pathway was through the kidneys, and 60 min after injection there was no obvious difference in [^18F]F-IV uptake values between tissues. The lack of significant specific accumulation of radioactivity in the brain, heart, lungs, and kidneys most likely reflects the low baseline level of COX-2 expression in these organs in healthy animals. It should be noted that relatively high initial levels of radioactivity in the blood pool persisted even 120 min after injection of [^18F]F-IV (0.99 ± 0.17 vs. 1.35 ± 0.06%ID/g). This was the main difference in the distribution of [^18F]F-IV and the previously reported [^11C]MPbP in organs and tissues of intact rats.
Ex vivo radioligand biodistribution was performed by direct radiometry of organs and tissue samples of Wistar rats. Each rat was injected with (12 ± 3) MBq (volume ≤ 0.2 mL) of [^18F]F-IV through the tail vein under anesthetic conditions. Control rats were sacrificed at 10 (n = 3), 30 (n = 3), 60 (n = 3), and 120 (n = 3) min after injection. Twenty-four hours prior to ex vivo biodistribution studies, 6 rats received an intraperitoneal (i.p.) injection of LPS (2 mg/kg) from Escherichia coli (O111: B4) or saline (1 mL/kg).
Blood samples and organs of interest, namely, the brain (cerebral cortex, cerebellum, medulla, and pons), thymus, heart, lung, spleen, kidney, liver, bladder, and muscle, were removed and weighed. The radioactivity in each tissue sample was measured by a γ-counter to calculate the percentage of injected dose per gram of tissue (%ID/g). Data were provided as mean ± SEM values.

[12] = rat plasma, read-out: PPB level, rats (converted)
[13] = unbound (free) fraction, 37 °C, n = 3, read-out: fu in Rat Plasma
[14] = human plasma, read-out: PPB level, humans (converted)
[15] = unbound (free) fraction, 37 °C, n = 6, read-out: fu in Human Plasma
[16] = %ID organ/%ID blood, 60 min post-injection
[17] = healthy (intact) rats, 10 min post-injection

T1 sequence (P23219 24-599): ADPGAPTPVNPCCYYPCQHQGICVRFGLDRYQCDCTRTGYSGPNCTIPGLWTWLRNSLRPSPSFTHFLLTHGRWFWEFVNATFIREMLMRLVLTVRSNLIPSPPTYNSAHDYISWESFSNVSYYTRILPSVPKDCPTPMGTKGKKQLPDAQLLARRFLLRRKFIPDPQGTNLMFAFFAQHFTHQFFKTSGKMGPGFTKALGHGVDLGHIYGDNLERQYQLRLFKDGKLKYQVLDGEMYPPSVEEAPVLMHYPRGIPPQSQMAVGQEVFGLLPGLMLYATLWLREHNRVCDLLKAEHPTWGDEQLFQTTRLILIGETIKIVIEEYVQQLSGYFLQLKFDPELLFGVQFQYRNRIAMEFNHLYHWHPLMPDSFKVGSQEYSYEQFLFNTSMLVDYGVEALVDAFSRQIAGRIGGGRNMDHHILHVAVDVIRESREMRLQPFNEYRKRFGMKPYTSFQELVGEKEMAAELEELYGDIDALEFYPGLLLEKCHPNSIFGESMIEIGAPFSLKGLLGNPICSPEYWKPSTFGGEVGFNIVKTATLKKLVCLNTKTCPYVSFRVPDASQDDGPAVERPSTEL

Question: Which “serum levels of IL-6 and TNF-α” value (IL-6 and TNF-α) does the source give for `Cc1ccc(-c2cc(C(F)(F)F)nn2-c2ccc(S(N)(=O)=O)cc2)cc1` [Celecoxib, celecoxib, reference compound] here?
Answer: reduced them to levels seen in intact animals

Question: And the “reduction of TBARS levels in brain” value [1]?
Answer: little or no effect

Question: For `CCCc1ccc(O)c(-c2ccc(OCCF)c(OC)c2)c1` [F-III, 4′-(2-fluoroethoxy)-3′-methoxy-5-propyl-2-hydroxy-1,1′-biphenyl], which “reduction of TBARS levels in brain” value [1] is on record?
Answer: 116%

Question: What does the source list for `CCCc1ccc(O)c(-c2ccc(OCCF)cc2)c1` [F-IV, 4′-(2-fluoroethoxy)-2-hydroxy-5-propyl-1,1′-biphenyl]?
Answer: serum levels of IL-6 and TNF-α (IL-6 and TNF-α): comparable or even superior to that of celecoxib; IC50 (human recombinant COX-1 [2]): 4610 nM; IC50 (human recombinant COX-2 [3]): 90 nM; SI (Selectivity Index) (human recombinant COX-2 [3]; SI = COX-1 IC50/COX-2 IC50, human assay kit, this study): 48

Question: What does the source list for `C=CCc1ccc(O)c(-c2ccc(OC)c(CC=C)c2)c1` [MH, 4′-O-methylhonokiol]?
Answer: IC50 (ovine COX-1): 2400 nM; IC50 (ovine COX-2): 60 nM

Question: What does the source list for `CCCc1ccc(O)c(-c2ccc(OC)cc2)c1` [MPbP]?
Answer: IC50 (human recombinant COX-1 [4]): 2530 nM; SI (Selectivity Index) (human recombinant COX-2 [5]; SI = COX-1 IC50/COX-2 IC50, human assay kit): 18; IC50 (human recombinant COX-2 [5]; human COX-1/COX-2 assay kit): 140 nM; experimental ddG between MPbP and F-IV for COX-2 (human recombinant COX-2 [3]; from experimental IC50 values): 0.22 kcal/mol

Question: Which fraction unbound at 15 min, 9.1 MBq/mL [6, 12] does the source give for `CCCc1ccc(O)c(-c2ccc(O[11CH3])cc2)c1` [[^11C]MPbP, 4′-[^11C]methoxy-5-propyl-1,1′-biphenyl-2-ol, reference compound] here?
Answer: 0.08

Question: And the fraction unbound at 15 min, 9.1 MBq/mL [6, 13]?
Answer: 0.0802 ± 0.0037

Question: And the fraction unbound at 15 min, 9.1 MBq/mL [7, 14]?
Answer: 0.02

Question: What about the fraction unbound at 15 min, 9.1 MBq/mL [7, 15] of the same molecule?
Answer: 0.0188 ± 0.0013

Question: What about the “uptake in LPS rats vs healthy rats” value [8] of the same molecule?
Answer: up to 400%

Question: For `CCCc1ccc(O)c(-c2ccc(OCC[18F])cc2)c1` [[^18F]F-IV, 4′-(2-[^18F]fluoroethoxy)-2-hydroxy-5-propyl-1,1′-biphenyl], which “radiochemical stability in human plasma” value [9] is on record?
Answer: 92%

Question: And the logD [10]?
Answer: 3.3 ± 0.1

Question: What about the fraction unbound at 15 min, 9.1 MBq/mL [6, 12] of the same molecule?
Answer: < 0.02

Question: And the fraction unbound at 15 min, 9.1 MBq/mL [6, 13]?
Answer: 0.0201 ± 0.0026

Question: What about the “increase in radioactivity in LPS animals vs controls, kidney” value [11, 16] of the same molecule?
Answer: 16%

Question: What about the “increase in radioactivity in LPS animals vs controls, liver” value [11, 16] of the same molecule?
Answer: 23%

Question: And the “increase in radioactivity in LPS animals vs controls, lung” value [11, 16]?
Answer: 12%

Question: And the “increase in radioactivity in LPS animals vs controls, spleen” value [11, 16]?
Answer: 20%

Question: What about the “increase in radioactivity in LPS animals vs controls, thymus” value [11, 16] of the same molecule?
Answer: 20%

Question: What about the “increase in uptake in LPS-treated vs saline-injected rats, medulla” value [11, 16] of the same molecule?
Answer: 16%

Question: And the “increase in uptake in LPS-treated vs saline-injected rats, pons” value [11, 16]?
Answer: 5%

Question: And the “reduction in radioactivity by celecoxib blocking” value ([11]; LPS rats, celecoxib 10 mg/kg i.v. 30 min before radioligand, brain (pons and medulla), heart, lung, kidney)?
Answer: 20–32%

Question: And the “brain uptake peak value, medulla” value [11, 17]?
Answer: 2.09 ± 0.65 %ID/g

Question: And the “brain uptake peak value, pons” value [11, 17]?
Answer: 2.21 ± 0.64 %ID/g

Question: What about the “radioactivity in the blood pool” value ([11]; intact rats, 120 min after injection) of the same molecule?
Answer: 0.99 ± 0.17 %ID/g

Question: What about the “radioactivity in the blood pool, initial level” value ([11]; intact rats, initial (10 min) level) of the same molecule?
Answer: 1.35 ± 0.06 %ID/g

Question: And the fraction unbound at 15 min, 9.1 MBq/mL [7, 14]?
Answer: < 0.01

Question: What about the fraction unbound at 15 min, 9.1 MBq/mL [7, 15] of the same molecule?
Answer: 0.0019 ± 0.0005
